Data taken from US9682070B2, “Method and compositions for treatment or prevention of inflammatory conditions” (University of Rochester, priority 2007, dated 2017).
Entries after “also recorded” stand apart in the source; their conditions may differ.

Key:
[1] = test system: NF-κB-dependent promoter activity; assay: NF-κB-Luc dual luciferase reporter assay in rat aortic VSMCs
[2] = test system: IκBα phosphorylation and degradation; assay: Western blot of TNFα-induced IκBα phosphorylation and degradation in VSMCs; assay type: cell-based; settings: rat aortic VSMCs; TNFα 10 ng/ml; vinpocetine 50 μM, nifedipine 30 μM, IC86340 15 μM, EGTA 2 mM, BAPTA/AM 30 μM
Description: (§1) Rat aortic VSMCs were treated with TNFα (10 ng/ml) for different time periods (0-30 minutes) as indicated in the presence or absence of vinpocetine ([…]). Western Blotting analysis was carried out to evaluate the levels of phosphorylated IκBα, total IκBα- and β-actin. […] IKK kinase activity was analyzed by an immune complex kinase assay. […] VSMCs were treated with TNFα for 10 min in the presence of various doses of vinpocetine as indicated. FIG. 8D illustrates the relative IKK activity as indicated. Intensities of the GST-IκBα bands in the autoradiogram were measured by densitometric scanning. Results were normalized to the control ([vinpocetine]=0) that is arbitrarily set to 100%. *p<0.05, **p<0.01 vs. vitipocetine at zero. FIGS. 8E-H illustrate the effects of vinpocetine on NF-κB activation induced by expressing constitutive active form of either MEKK1 (CA-MEKK1) (FIG. 8E), IKKα (CA-IKKα) (FIG. 8F), IKKβ (CA-IKKβ) (FIG. 8G), or WT p65 (FIG. 8H) in VSMCs.
(§2) Rat aortic VSMCs were treated with TNFα (10 ng/ml) for 10 minutes in the presence of either 50 μM vinpocetine, 30 μM nifedipine (Ca^2+ channel blocker), 15 μM IC86340 (PDE1 inhibitor), 2 mM EGTA (extracellular Ca^2+ chelator), or 30 μM BAPTA/AM (intracellular Ca^2+ chelator). […] Western Blotting analysis was carried out to evaluate the levels of phosphorylated IκBα total IκBα and β-actin. Data represent at least three independent experiments.
Cells lysates were prepared in the buffer containing 20 mM Tris-HCl (pH8.0), 0.5 M NaCl, 0.25% Triton X-100, 1 mM EDTA, 1 mM EGTA, 10 mM-glycerophosphate, 10 mM NaF, 100 μM Na3VO4, 1 mM benzamidine, 2 μM PMSF, 1 mM DTT and protease inhibitor cocktail (Sigma, MO. USA), by scraping, sonication, and centrifugation at 12,000 g for 15 min. Supernatant were collected and then subjected to SDS-PAGE and Western blot analysis with indicated antibodies.

[3] = test system: IKK; assay: IKK immune complex kinase assay from TNFα-treated VSMCs; assay type: cell-based, rat; settings: for effect on the ability of vinpocetine on IKK kinase activity, IκB phosphorylation, IκB degradation or NF-κB-dependent transcriptional activity: co-treatment with vinpocetine; for TNFα-induced IKK kinase activity: rat aortic VSMCs treated with TNFα 10 min in the presence of compound
Description: as §1, §2
Cell lysates were prepared as described above. 1 mg of cell lysates were incubated with 1-2 μg of anti-IKKα (Santa Cruz, Calif., USA) for 1-2 h, followed by 50μl of 50% of slurry protein A/G plus-Agarose for another 1 h or overnight at 4° C. Immunoprecipitants were then washed two times with lysis buffer and once with kinase buffer without ATP. In vitro kinase assay were performed in kinase buffer containing 20 mM HEPES (pH 7.7), 2 mM MgCl2, 2 mM MnCl2, 10 μM ATP, 5 μCi of [γ-^32P]ATP (Amersham Biosciences, NJ, USA), 10 mM glycerophosphate, 10 mM NaF, 100 μM Na3VO4, 1 mM benzamidine, 2 μM PMSF, 1 mM DTT and protease inhibitor cocktail (Sigma, MO, USA) at 30° C. for 30-60 min, in the presence of substrate GST-IκBα (AA 1-54) (kindly provided by Dae-Myung Jue, Catholic University of Korea). Proteins were separated by 12% SDS-PAGE and subjected to autoradiography. Phosphorylation of GST-IκBα was quantified in NIH Image 1.60.
Because IKK is known as the major upstream kinase for IκBα phosphorylation and degradation, whether vinpocetine inhibits IκB phosphorylation and degradation via inhibition of IKK was determined. TNFα-induced activation of IKK was confirmed by performing IKK kinase assay in TNFα-stimulated VSMCs. The crude cell lysates from treated VSMCs were first immunoprecipitated with an anti-IKKα antibody and IKK kinase activity was then measured in vitro with IKK immune complexes incubated with the substrate GST-IκBα in the presence of [γ-^32P]-ATP.

[4] = test system: pro-inflammatory mediators at mRNA levels; assay: Q-PCR of TNFα-induced pro-inflammatory mediators in RAW264.7; assay type: cell-based, mouse; settings: TNFα 10 ng/ml 6 hours, vinpocetine 50 μM
Description: (§3) Expression of TNFα, IL-1β, IL-8, MCP-1 and VCAM-1, ICAM-1, MIP-1 at mRNA levels were measured by Real-time quantitative RT-PCR (Q-PCR).
(§4) Total RNA was isolated with TRIzol reagent (Invitrogen) by following the manufacturer's instructions. For the reverse transcription reaction, TaqMan reverse transcription reagents (Applied Biosystems) were used. In brief, the reverse transcription reaction was performed for 60 min at 37° C., followed by 60 min at 42° C. by using oligo (dT) and random hexamers. PCR amplifications were performed by using SYBR Green Universal Master Mix. In brief, reactions were performed in duplicate containing 2× Universal Master Mix, 1 μl of template cDNA and 100 nM primers in a final volume of 12.5 μl, and they were analyzed in a 96-well optical reaction plate (Applied Biosystems). The relative quantities of mRNAs were obtained by using the comparative Ct method and were normalized with predeveloped Taqman assay reagent rat or mouse glyceraldehydes-3-phosphate dehydrogenase or human cyclophilin as an endogenous control (Applied Biosystems).

[5] = test system: pro-inflammatory mediators at mRNA levels; assay: Q-PCR of TNFα-induced pro-inflammatory mediators in rat aortic VSMCs; assay type: cell-based; settings: TNFα 10 ng/ml 6 hours, vinpocetine 50 μM
Description: as §3, §4

[6] = test system: pro-inflammatory mediators at mRNA levels; assay: Q-PCR of TNFα-induced pro-inflammatory mediators in HUVECs; assay type: cell-based, human; settings: TNFα 10 ng/ml 6 hours, vinpocetine 50 μM
Description: as §3, §4

[7] = test system: IKK; assay: In vitro IKK kinase assay in the presence of cell lysates from vinpocetine-treated VSMCs; assay type: biochemical, rat
Description: Intensities of the GST-IκBα bands in the autoradiogram were measured by densitometric scanning.

[8] = test system: U937 monocytes adhering to HUVECs; assay: Monocyte adhesion assay; assay type: cell-based, human; settings: 50 μM vinpocetine 30 min, then TNFα 10 ng/ml 6 hours
[9] = test system: LPS-induced lung inflammation; assay: Mouse model of lung inflammation induced by LPS; assay type: in vivo; settings: mice
[10] = patients, literature; cited from earlier work
[11] = test system: monocyte chemotaxis to VSMCs; assay: Monocyte chemotaxis assay (transwell migration, Boyden chamber); assay type: cell-based, rat; settings: various doses; TNFα 10 ng/ml 9 hours; VSMC-conditional medium
[12] = test system: TNFα-induced lung inflammation; assay: Mouse model of lung inflammation induced by TNFα; assay type: in vivo; settings: mice; TNFα i.t. (500 ng per mouse)
Description: Lung tissues were collected and then stored at -80° C. for mRNA expression analysis. For polymorphonuclear neutrophil (PMN) recruitment analysis, broncho-alveolar lavage (BAL) was performed by cannulating the trachea with sterilized PBS, and cells from BAL was stained with Hemacolor (EM Science) after cytocentrifugation (Shandon Cytospin4, Thermo Electronic Co.). Three mice were used for each inoculation group. All animal experiments were approved by the institutional Animal Care and Use Committee at University of Rochester.

[13] = test system: cell morphology and viability; assay: Cytotoxic effects on cell morphology and viability; assay type: cell-based; settings: at the tested doses
[14] = test system: IKK; assay: In vitro IKK kinase assay, compound applied directly to the IKK immune complex; assay type: biochemical, rat; settings: IKK immune complex in the test tube
[15] = test system: NF-κB-dependent promoter activity; assay: IL-1- and LPS-induced NF-κB-dependent promoter activity; assay type: cell-based
[16] = test system: pro-inflammatory mediators at mRNA levels; assay: Q-PCR of TNFα-induced pro-inflammatory mediators in A549 cells; assay type: cell-based, human; settings: TNFα 10 ng/ml 6 hours, vinpocetine 50 μM
Description: as §3, §4

[17] = test system: NF-κB activation; assay: NF-κB luciferase activity induced by CA-MEKK1, CA-IKKα, CA-IKKβ or WT p65 in VSMCs; assay type: cell-based, rat

NC1=N[C@H](O)[C@H]2[C@H]3O[C@]4(O)O[C@@H]([C@@H](O)[C@@]2(N1)[C@@H]4O)[C@]3(O)CO [tetrodotoxin]
effect on the effect of vinpocetine on NF-κB-dependent transcription [1]: did not alter

CC(=O)OCOC(=O)CN(CC(=O)OCOC(C)=O)c1ccccc1OCCOc1ccccc1N(CC(=O)OCOC(C)=O)CC(=O)OCOC(C)=O [BAPTA/AM]
TNFα-induced IκBα phosphorylation and degradation [2]: none of them exhibited any significant inhibitory effects | effect on the ability of vinpocetine on IKK kinase activity, IκB phosphorylation, IκB degradation or NF-κB-dependent transcriptional activity [3]: did not significantly affect | TNFα-induced IKK kinase activity [3]: none of them exhibited any significant inhibitory effects

CCOC(=O)C1=C[C@]2(CC)CCCN3CCc4c(n1c1ccccc41)[C@@H]32 [vinpocetine, (+)-vinpocetine]
TNFα-induced expression of TNFα, IL-1β and MIP-2 mRNA [4]: inhibit | TNFα-induced expression of TNFα, IL-1β, IL-8, MCP-1 and VCAM-1 mRNA [5]: potently inhibited | TNFα-induced expression of TNFα, IL-1β, IL-8, MCP-1, VCAM-1 and ICAM-1 mRNA [6]: inhibit | inhibition of IKK activity by cell lysates from vinpocetine-treated cells ([7]; cell lysates): 50% | vinpocetine treatment concentration of lysate required for a significant effect on IKK inhibition ex vivo ([7]; cell lysates): 100 µM | IKK activity in the presence of cell lysates from vinpocetine-treated cells ([7]; lysates of VSMCs preincubated with vinpocetine): inhibited IKK activity | monocyte adhesion to HUVECs [8]: markedly inhibited | induction of TNFα, IL-1β and MIP-2 mRNA in the lungs ([9]; LPS 2 μg/mouse i.t., vinpocetine 2.5, 5, 10 mg/kg i.p.): dose-dependently inhibited; also recorded: significantly inhibited | PMN infiltration in BAL fluids ([9]; LPS i.t., vinpocetine 10 mg/kg i.p.): significantly inhibited | side effects, toxicity or contraindications at the therapeutic doses [10]: no reports of significant side effects, toxicity or contraindications | monocyte chemotaxis to VSMCs induced by TNFα [11]: inhibited monocyte chemotaxis to VSMCs induced by TNFα in a dose-dependent manner | induction of inflammatory mediators and PMN infiltration in the lungs [12]: also inhibited | TNFα-induced NF-κB-dependent promoter activity ([1]; rat aortic VSMCs, TNFα 10 ng/ml 6 hours, various doses): potently inhibited | cytotoxic effects on cell morphology and viability [13]: no significant cytotoxic effects | IKK activity, compound directly applied to IKK [14]: No significant inhibitory effect; also recorded: did not inhibit IKK activity | IL-1- and LPS-induced NF-κB-dependent promoter activity [15]: inhibited | TNFα-induced IκBα phosphorylation and degradation [2]: markedly inhibited | TNFα-induced expression of TNFα, IL-1β and IL-8 mRNA [16]: inhibit | NF-κB activation induced by CA-IKKα ([17]; constitutively active IKKα): inhibited | NF-κB activation induced by CA-IKKβ ([17]; constitutively active IKKβ): inhibited | CA-MEKK1-induced NF-κB activation ([17]; constitutively active MEKK1): significantly inhibited | TNFα-induced IKK kinase activity [3]: inhibited TNFα-induced IKK activity in a dose-dependent manner

O=C(O)CN(CCOCCOCCN(CC(=O)O)CC(=O)O)CC(=O)O [EGTA]
TNFα-induced IκBα phosphorylation and degradation [2]: none of them exhibited any significant inhibitory effects | effect on the ability of vinpocetine on IKK kinase activity, IκB phosphorylation, IκB degradation or NF-κB-dependent transcriptional activity [3]: did not significantly affect | TNFα-induced IKK kinase activity [3]: none of them exhibited any significant inhibitory effects
